Measurements taken from patent US5283255A, “Wavelength-specific cytotoxic agents” (The University of British Columbia, priority 1992, dated 1994).
Where “and” joins values, the source holds several entries; their conditions need not be identical. Equal values may be shown once. Read-outs that look alike come from different tables or passages of the source.

Experiments:
[1] = test system: P815 target cells; conditions: mouse, in vivo, iv
Experimental: (§4) To determine biodegradability, tritiated BPD-MA was injected IV into P815 tumor-bearing mice. The mice were sacrificed at either 3 or 24 hours following injection and tumors, livers and kidneys were removed. The BPD-MA in these tissues was extracted and photoactivity was assessed in P815 target cells as described above in Example 1 under standard in vitro conditions.

[2] = test system: colon adenocarcinoma; conditions: rat, in vivo
[3] = test system: M-1 rhabdomycoscercoma; assay: In vivo photosensitization, M-1 rhabdomyosarcoma system in DBA/J2 mice
Experimental: Studies of potential photosensitizers were performed using the M-1 rhabdomycoscercoma system in DBA/J2 mice. The compositions to be tested were diluted to a concentration of […] in PBS from a stock solution in DMSO at 8 mg/ml (except Photofrin® II, which was diluted directly from the clinical vial). […]

[4] = test system: colon adenocarcinoma; assay: Detection of tumors by fluorescence in rats; conditions: 3.5 mg/kg IV; 3 h
[5] = test system: tumor cells; assay: Alternate in vivo assay: kill of tumor cells from dosed mice (MTT); conditions: 180 min
[6] = test system: atherosclerotic aortas; assay: Rabbit studies of aorta, fluorescence microscopy; type: in vivo
Experimental: The rabbits were injected with BPD-MA at various dosages and time intervals prior to sacrifice. The rabbits were euthanized by injection and the entire descending aorta was removed, sectioned, and examined by fluorescence microscopy.

[7] = test system: VSV; assay: microbe, parasite or virus in culture; design: species or system Vesicular stomatitis virus; conditions: for log reduction at 1 µg/mL: read-out: virus kill, 1 μg/ml; for log reduction at 1000 µg/mL: read-out: virus kill, 1 mg/ml (so in the source)
[8] = in vivo; conditions: mouse, iv
Experimental: as §4

[9] = test system: warts caused by Papilloma virus; assay: Systemic administration, papilloma-caused warts in rabbits; type: in vivo, rabbit; conditions: of 12 warts, 2 mg/kg IV
Experimental: Rabbits displaying warts caused by Papilloma virus were provided according to the model described by Shope et al., J. Exp. Med, (1933) 58:607-624. Five rabbits were administered Photofrin® II porfimer sodium intravenously at 10 mg/kg total dose over a ≤5 minute period beginning 24 hours before irradiation treatment. Six rabbits were administered BPD-MA intravenously at 2 mg/kg total dose over a ≤5 minute period beginning 2.5-3.5 hours before irradiation treatment. Warts were irradiated individually with no light, 150 J/cm^2 or 250 J/cm^2 using 630 nm for porfimer sodium and 690 nm for BPD-MA.

[10] = test system: target cells; assay: In vitro evaluation of BPD-DA, -MA, -DB and -MB (as in Example 1); type: cell-based
Experimental: For the "affinity" assay, in the dark, 100 μl of the target cell suspension and 100 μl of the test or control compound were mixed. "Labeling" was allowed to continue for one hour at 4° C., and labeled cells were washed in the dark three times with 3 ml medium each time and resuspended in fresh medium. The resuspended cells were then subjected to light exposure at 300-750 nanometers for 30 minutes.
In a "direct" assay the target cells were irradiated immediately upon addition of the test or control compound.
The effect of irradiation was estimated using methods appropriate to the target cells.
The four compounds shown in FIG. 2, wherein R^1 and R^2 are carbomethoxy, were tested in vitro as described in Example 1.

[11] = test system: Human atherosclerotic iliofemoral arteries and aorta; assay: In vitro human atherosclerotic tissue study, fluorescence microscopy
Experimental: Human atherosclerotic iliofemoral arteries and aorta were harvested and wrapped in saline-soaked gauze and then incubated for 2 hours at room temperature in MEM-Eagle's Medium and 10% fetal calf serum mixed with BPD-MA formulated at 30 μg/ml. The BPD was prepared by mixing 1 ml of BPD-MA stock solution with 8.1 ml MEM-Eagle's Medium and 0.9 ml fetal calf serum.
The sample was rinsed three times in cold normal saline, and the sections were examined by fluorescence microscopy to evaluate the uptake of BPD. The administered dose was finally diluted to provide solutions containing 0.5-200 μg/ml, and incubation time was varied.

[12] = test system: skin; conditions: mouse, in vivo
Experimental: Mice bearing P815 tumors were shaved and injected with equivalent amounts of photosensitizer, and exposed to 72 Jo/cm^2 (80 mw/cm^2 -15 min-full spectrum) at various time intervals. Skin biopsies were taken at 24 and 48 hours after light irradiation and visual evaluations were made blind.

[13] = type: in vitro ADME, human
Experimental: (§1) Franz in vitro percutaneous diffusion chambers were used to conduct studies of BPD formulations with oleic acid and oleyl alcohol vehicles (^14 C-BPD having a specific activity of 6 μCi was used). Excised split thickness (200 μ) human cadaver skin was mounted on the chamber (surface area 3 cm^2). The lower reservoir contained 4% bovine serum albumen in isotonic buffered saline, pH 7.0.
(§2) The chambers with the skin were equilibrated to 37° C. prior to application of the drug formulations. Formulations ([…] containing 1.67 μCi) were applied to the epidermal surface of the skin. The chamber was covered (occluded) to prevent evaporation, and the experiment was conducted in the dark.
(§3) Six diffusion cells were run for each time point (1.5 hr, 3 hr, 24 hr) for each formulation. Samples were removed from the dermal chamber at 1.5 hr, 3 hr and 24 hr. Cumulative penetration was assayed by liquid scintillation.
At the end of the respective time point, the surface of the skin was washed to remove surface drug. A 4 mm full thickness skin punch biopsy was taken from each specimen and processed for frozen section tissue fluorescence. […] The stratum corneum was removed by 25 repetitive strippings with cellophane tape and counted in groups of five. […] These tissues were then digested and the ^14 C-BPD content of each of the skin compartments and reservoir was determined by liquid scintillation counting. […]

[14] = type: in vitro ADME; conditions: human
Experimental: as §1, §2, §3
At the end of the respective time point, the surface of the skin was washed to remove surface drug. A 4 mm full thickness skin punch biopsy was taken from each specimen and processed for frozen section tissue fluorescence. This necessitates termination of flux measurements in that chamber. The stratum corneum was removed by 25 repetitive strippings with cellophane tape and counted in groups of five. The epidermis was heat-separated from the dermis by heating to 60° C. for 1 minute. These tissues were then digested and the ^14 C-BPD content of each of the skin compartments and reservoir was determined by liquid scintillation counting. (In the tables, "BPD-OA" and "BPD-OL" represent the BPD-oleic acid and BPD-oleyl alcohol formulations of the preceding example, "CH-014" represents ^14 C-labeled BPD-MA, and "phospholipid" represents a BPD-MA liposomal formulation.)

For `C=Cc1c(C)c2cc3nc(cc4[nH]c(cc5nc(cc1[nH]2)C(C)=C5CCC(=O)O)c(CCC(=O)OC)c4C)C1(C)C3=CC=C(C(=O)OC)C1C(=O)OC` (stereo not drawn) [BPD-MA], the “degradation in liver and kidney compared with tumor tissue” value [1] was “both the liver and kidney degraded BPD more rapidly than did tumor tissue”, the “drug-related signal over malignant tumor” value [2] was “BPD-MA-related signal increases over the malignant tumor” and the “Number of Days Tumor Free (PR)” value ([3]; Table 6, 567 Jo/cm^2, IV 24 h before light) was 9.2 days. The “Cures (tumor regressed and tumor-free for 30 days)” value ([3]; Table 6, 567 Jo/cm^2, 8 animals per group) was 4, the “Days Tumor-free” value ([3]; Table 7, light dose 378 To/cm^3) was 13.2 days and the “Number of Cures” value ([3]; Table 7, light dose 378 To/cm^3, 9-15 animals) was 4. For the same compound, the “ratio of tumor exterior to muscle compared with HP” value [4] was “approximately the same as that for HP”, the “% Kill” value ([5]; 33 μg/mouse IV, light dose 5.7 Jo) was 22.0% and the “% Kill” value ([5]; 40 μg/mouse IV, light dose 3.8 Jo) was 32.5%. For the same compound, the “% Kill” value ([5]; 80 μg/mouse IV, light dose 3.8 Jo) was 63.5 ± 2.1% and 53.7 ± 6.2%, the “fluorescence in aorta tissue samples” value ([6]; 30 μg/kg) was “No fluorescence was seen” and the “fluorescence in normal aorta samples” value ([6]; 100 μg/kg) was “no fluorescence was shown in the normal aorta samples”. For the same compound, the “fluorescence in atherosclerotic samples” value ([6]; 100 μg/kg, two samples) was “fluorescence was seen in the plaque but not the arterial wall”, the “relationship between total light energy and drug dose required to inactivate VSV” value ([7]; 1, 2 and 4 μg/ml, 1 ml samples, 2 h before light) was “inverse relationship between total light energy and the drug dose required to inactivate the VSV” and the virus inactivation ([7]; 2 and 4 μg/ml, 2 h dark incubation, 57.6 J/cm^2, 1 and 2 ml samples) was “complete virus inactivation”. The “effect of increasing incubation time on VSV inactivation” value ([7]; 0.5 hour to 1 hour, 1 μg/ml, 57.6 J/cm^2) was “improved VSV inactivation”, the log reduction at 2 µg/mL ([7]; Vesicular stomatitis virus, light or radiation study, 2 h, read-out: viral kill, 2 μg/ml, 1 ml, 2 h, 57.6 J/cm^2) was 7 and the log reduction at 1 µg/mL ([7]; Vesicular stomatitis virus, light or radiation study, 2 h, 28.8 J/cm^2) was 2. It also gave a log reduction at 1 µg/mL ([7]; Vesicular stomatitis virus, light or radiation study, 2 h, 57.6 J/cm^2) of 5, a log reduction at 1000 µg/mL ([7]; Vesicular stomatitis virus, light or radiation study, 1 ml sample, 57.6 J/cm^2) of 4 and a log reduction at 1000 µg/mL ([7]; Vesicular stomatitis virus, light or radiation study, 2 ml sample, 57.6 J/cm^2) of 2. For the same compound, the “effect of incubation temperature” value ([7]; room temperature, 37° C. or 4° C.) was “little difference”, the “effect of further increasing incubation time on VSV inactivation” value ([7]; to 2-3 hours, 1 μg/ml, 57.6 J/cm^2) was “little effect” and the remaining at 3 h [8] was 100%. The remaining at 24 h [8] was 39%, the warts completely regressed ([9]; 150 J/cm^2, 690 nm) was 7 and the “warts showing >50% regression” value ([9]; 150 J/cm^2, 690 nm) was 5. For the same compound, the “warts showing complete cure” value ([9]; 250 J/cm^2, 690 nm) was 12, the in vitro photosensitivity [10] was “somewhat more active” and the “fluorescence for detection of plaques” value ([11]; 10 μg/ml or less) was “did not provide sufficient fluorescence to detect the presence of plaques”. The “fluorescence for detection of plaques” value ([11]; 100 μg/ml and above) was “fluorescence was clearly seen”, the “fluorescence in plaqued areas” value ([11]; approximately 25 μg/ml) was “showed most intensely in the plaqued areas” and the “fluorescence in underlying arterial wall” value ([11]; approximately 25 μg/ml) was “no fluorescence was seen in the underlying arterial wall”. The skin photosensitizing activity [12] was “major photosensitizing activity” and the “time dependence of skin photosensitizing activity” value [12] was “only present when light treatment was given 3 hours post drug administration”.

With `C=Cc1c(C)c2cc3nc(cc4[nH]c(cc5nc(cc1[nH]2)C(C)=C5CCC(=O)O)c(CCC(=O)OC)c4C)C1(C)C3=CC=C(C(=O)OC)C1C(=O)OC` (stereo not drawn) [CH-014] the “TISSUE FLUORESCENCE, Dermis” value [13] was 1, the “PERCENT RECOVERY, Dermis” value ([14]; 90 min) was “.19 ± .06%” and the “PERCENT RECOVERY, Epidermis” value ([14]; 90 min) was “.13 ± .13%”. The “PERCENT RECOVERY, Reservoir” value ([14]; 90 min) was 0%, the “PERCENT RECOVERY, Dermis” value ([14]; 180 min) was “.32 ± .11%” and the “PERCENT RECOVERY, Epidermis” value ([14]; 180 min) was “.06 ± .02%”. For the same compound, the “PERCENT RECOVERY, Reservoir” value ([14]; 180 min) was 0%, the “PERCENT RECOVERY, Dermis” value ([14]; 1440 min) was “.40 ± .28%” and the “PERCENT RECOVERY, Epidermis” value ([14]; 1440 min) was “.06 ± .03%”. The “PERCENT RECOVERY, Reservoir” value ([14]; 1440 min) was “.014 ± .018%”.
